Laboratory results as given in US12448373B2, “Azetidinyl-acetamides as CXCR7 inhibitors” (CHEMOCENTRYX, INC., priority 2021, dated 2025).

Biological target: T1, CXCR7 (Homo sapiens, UniProt P25106)
T1 construct: expressed in transfected cells; host or cells: CHO cells (CHO-CXCR7), transgenes maintained with Hygromycin B and G418
Experiment: CXCR7 β-arrestin recruitment assay in CHO-CXCR7 cells (ProLink/EA β-galactosidase complementation), induced by human SDF-1a
Format: cell-based
Settings: assay buffer, SDF-1a at EC50 concentration
Method: CXCR7 is fused in frame with a small enzyme donor fragment ProLink and co-expressed in CHO cells stably expressing a fusion protein of β-arrestin and the larger, N-terminal deletion mutant of β-galactosidase (called enzyme acceptor or EA). Activation of the CXCR7 stimulates binding of β-arrestin to the ProLink-tagged CXCR7 and forces complementation of the two enzyme fragments, resulting in the formation of an active β-galactosidase enzyme. The β-galactosidase enzyme activity is measured with a substrate that generates fluorescence.
CHO-CXCR7 cells (0.22×10^6/mL) were cultured in growth medium (Ham's F-12 medium with 10% fetal bovine serum (FBS)), Hygromycin B (200 ug/mL) and G418 (250 ug/mL) were used to maintain the transgenes. The day before the assay, the cells were detached from culture dishes with 0.25% trypsin-EDTA (Corning, Catalog No. 25-053-CI), plated into 96 well plate (2.2×10^5 cells/mL, 100 μL/well) and incubated overnight at 37° C. with 5% CO2. On the day of the assay, cell culture medium was removed and 100 uL of assay buffer (PBS or FBS) was added to each well. 1 μL of compound that were serially diluted in DMSO was added to each well. 5 μL of human SDF-la (Pepro Tech, Catalog No. 300-28A, at EC50 concentration pre-determined on the same day) was then added and mixed to induce CXCR7-mediated β-arrestin recruitment. The plates were incubated for 1.5 hours at 37° C. The assay buffer was removed, 100 μL substrate solution was added and the reaction was carried out at 37° C. for 30 minutes. The substrate solution was prepared by mixing 100 mL Phosphate Buffer (1M, Sigma, Catalog No. P3619-1GA), 100 mL 10% Triton X 100 (Sigma, Catalog No. T8787.), 5 mL MgCl2 (1M, Sigma, Catalog No. M1028), 1.5 mL, β-mercaptoethanol (Gibco, Catalog No. 21985-023.). 3-carboxyumbelliferyl β-D-galactopyranoside (ThermoFisher Scientific, Catalo No. F2905) was added at 0.4 mM right before use. The reaction was then stopped by adding 50 μL of Stop Solution (2.1% w/v Na2CO3) to each well. Fluorescence intensity was measured with a FlexStation 3 microplate reader (Molecular Devices) with the following setting—excitation: 360 nm, emission: 465 nm, manual Gain: 55. IC50 values were calculated with GraphPad Prism using 3 parameter nonlinear regression.

T1 sequence (P25106 whole entry): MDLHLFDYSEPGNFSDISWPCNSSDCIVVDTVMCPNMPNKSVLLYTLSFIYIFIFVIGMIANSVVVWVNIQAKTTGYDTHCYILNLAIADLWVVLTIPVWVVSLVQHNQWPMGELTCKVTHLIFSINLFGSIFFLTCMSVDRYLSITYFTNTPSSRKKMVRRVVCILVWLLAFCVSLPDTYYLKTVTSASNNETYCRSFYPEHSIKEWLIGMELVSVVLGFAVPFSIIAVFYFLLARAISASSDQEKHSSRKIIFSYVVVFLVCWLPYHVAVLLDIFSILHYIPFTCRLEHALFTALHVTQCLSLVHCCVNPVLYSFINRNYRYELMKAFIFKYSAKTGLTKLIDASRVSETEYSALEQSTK

Row | Structure (SMILES) | IC50
1 | Cc1cc(C(F)(F)F)cc(C(C)(C)NC(=O)CC2(NC(=O)c3cc(-c4ccc(F)cc4F)on3)CN([C@H]3CC[C@](C)(O)CC3)C2)n1 [Example 1.343] | 5 to 100 nM
2 | Cc1cncc(C(C)(C)NC(=O)CC2(NC(=O)c3cc(-c4ccc(F)cc4F)on3)CN([C@H]3CC[C@@](C)(O)CC3)C2)c1 [Example 1.139] | 5 to 100 nM
3 | Cc1cc(C(C)(C)NC(=O)CC2(NC(=O)c3cc(-c4ccc(F)cc4F)on3)CN([C@H]3CC[C@](C)(O)CC3)C2)nc(C)n1 [Example 1.079] | 5 to 100 nM
4 | COc1cc(Cl)cc(C(C)(C)NC(=O)CC2(NC(=O)c3cc(-c4ccc(F)cc4F)on3)CN(CC(C)(C)O)C2)c1 [Example 1.154] | < 5 nM
5 | Cc1cccnc1C(C)(C)NC(=O)CC1(NC(=O)c2nnc(-c3ccc(F)cc3F)s2)CN([C@H]2CC[C@](C)(O)CC2)C1 [Example 1.012] | 100 to 1000 nM
6 | CC(C)(NC(=O)CC1(NC(=O)c2nnc(-c3ccc(F)cc3F)s2)CN([C@H]2CC[C@](C)(O)CC2)C1)c1ccccn1 [Example 1.063] | 5 to 100 nM
7 | Cc1ccc(C(C)(C)NC(=O)CC2(NC(=O)c3cc(-c4ccc(F)cc4F)on3)CN([C@H]3CC[C@](C)(O)CC3)C2)c(F)c1 [Example 1.247] | 100 to 1000 nM
8 | CC(C)(NC(=O)CC1(NC(=O)c2cc(-c3ccc(F)cc3F)on2)CN([C@H]2CC[C@@](C)(O)CC2)C1)c1cnccn1 [Example 1.157] | 5 to 100 nM
9 | COc1cccc(C(C)(C)NC(=O)CC2(NC(=O)c3cc(-c4ccc(F)cc4F)on3)CN([C@H]3CC[C@](C)(O)CC3)C2)c1F [Example 1.196] | 100 to 1000 nM
10 | CC(C)(NC(=O)CC1(NC(=O)c2cc(-c3ccc(F)cc3F)on2)CN(CC2CC2)C1)c1ccccc1 [Example 1.322] | 5 to 100 nM
11 | O=C(CC1(NC(=O)c2cc(-c3ccc(F)cc3F)on2)CN(Cc2ccccc2)C1)NC1(c2ncccn2)CC1 [Example 1.329] | 100 to 1000 nM
12 | COc1cc(C(C)(C)NC(=O)CC2(NC(=O)c3cc(-c4ccc(F)cc4F)on3)CN([C@H]3CC[C@@](C)(O)CC3)C2)ccc1F [Example 1.176] | 5 to 100 nM
13 | Cc1cccc(C(C)(C)NC(=O)CC2(NC(=O)c3cc(-c4ccc(F)cc4F)on3)CN(CC3(C)COC3)C2)n1 [Example 1.217] | 5 to 100 nM
14 | CC(C)(F)CN1CC(CC(=O)NC(C)(C)c2ccccn2)(NC(=O)c2cc(-c3ccc(F)cc3F)on2)C1 [Example 1.104] | 1000 to 20000 nM
15 | Cc1cc(C(C)(C)NC(=O)CC2(NC(=O)c3cc(-c4ccc(F)cc4F)on3)CN(CC3(O)CCC3)C2)ccn1 [Example 1.150] | 100 to 1000 nM
16 | Cc1cc(C)nc(C(C)(C)NC(=O)CC2(NC(=O)c3nnc(-c4ccc(F)cc4F)s3)CN(CC(C)C)C2)n1 [Example 1.039] | 5 to 100 nM

Row | Structure (SMILES) | IC50
17 | Cc1cc(C(C)(C)NC(=O)CC2(NC(=O)c3cc(-c4ccc(F)cc4F)on3)CN(CC(C)(C)O)C2)ccn1 [Example 1.175] | 5 to 100 nM
18 | CC(C)(NC(=O)CC1(NC(=O)c2nnc(-c3ccc(F)cc3F)s2)CN([C@H]2CC[C@](C)(O)CC2)C1)c1ncccn1 [Example 1.033] | 5 to 100 nM
19 | CC(C)(NC(=O)CC1(NC(=O)c2cc(-c3ccc(F)cc3F)on2)CN([C@H]2CC[C@](C)(O)CC2)C1)c1cnccn1 [Example 1.158] | 5 to 100 nM
20 | CCc1cc(C(C)(C)NC(=O)CC2(NC(=O)c3cc(-c4ccc(F)cc4F)on3)CN([C@H]3CC[C@@](C)(O)CC3)C2)ccn1 [Example 1.148] | 5 to 100 nM
21 | Cc1cc(C)nc(C(C)(C)NC(=O)CC2(NC(=O)c3nnc(-c4ccc(F)cc4F)o3)CN([C@H]3CC[C@](C)(O)CC3)C2)n1 [Example 1.055] | 100 to 1000 nM
22 | COc1cc(C(C)(C)NC(=O)CC2(NC(=O)c3cc(-c4ccc(F)cc4F)on3)CN([C@H]3CC[C@](C)(O)CC3)C2)ccn1 [Example 1.189] | < 5 nM
23 | CC(C)(NC(=O)CC1(NC(=O)c2cc(-c3ccc(F)cc3F)on2)CN([C@H]2CC[C@](C)(O)CC2)C1)c1ccnc2[nH]ccc12 [Example 1.101] | 5 to 100 nM
24 | COc1cc(OC)nc(C(C)(C)NC(=O)CC2(NC(=O)c3nnc(-c4ccc(F)cc4F)s3)CN([C@H]3CC[C@](C)(O)CC3)C2)c1 [Example 1.342] | 5 to 100 nM
25 | CC(C)(NC(=O)CC1(NC(=O)c2cc(-c3ccc(F)cc3F)on2)CN([C@H]2CC[C@](C)(O)CC2)C1)c1cc(F)ccc1F [Example 1.236] | < 5 nM
26 | Cc1ccnc(C(C)(C)NC(=O)CC2(NC(=O)c3cc(-c4ccc(F)cc4F)on3)CN([C@H]3CC[C@](C)(O)CC3)C2)n1 [Example 1.202] | < 5 nM
27 | Cc1cc(C(C)(C)NC(=O)CC2(NC(=O)c3nnc(-c4ccc(F)cc4F)s3)CN([C@H]3CC[C@](C)(O)CC3)C2)ccn1 [Example 1.335] | 5 to 100 nM
28 | COc1ccc(F)c(C(C)(C)NC(=O)CC2(NC(=O)c3cc(-c4ccc(F)cc4F)on3)CN([C@H]3CC[C@](C)(O)CC3)C2)c1 [Example 1.206] | 5 to 100 nM
29 | C[C@]1(O)CC[C@H](N2CC(CC(=O)NCc3c[nH]c4ccccc34)(NC(=O)c3cc(-c4ccc(F)cc4F)on3)C2)CC1 [Example 1.279] | 5 to 100 nM
30 | CC(C)(NC(=O)CC1(NC(=O)c2cc(-c3ccc(F)cc3F)on2)CN([C@H]2CC[C@](C)(O)CC2)C1)c1cccc2cc[nH]c12 [Example 1.116] | < 5 nM
31 | CC(C)(NC(=O)CC1(NC(=O)c2cc(-c3ccc(F)cc3F)on2)CN(C2CCC(F)(F)CC2)C1)c1ccccn1 [Example 1.319] | 5 to 100 nM

Continued, values first:

Row | IC50 | Structure (SMILES)
32 | 5 to 100 nM | CC(C)(NC(=O)CC1(NC(=O)c2cc(-c3ccc(F)cc3F)on2)CN([C@H]2CC[C@@](C)(O)CC2)C1)c1ccc(F)c(F)c1 [Example 1.256]
33 | < 5 nM | CC1(C)CCC(N2CC(CC(=O)NC(C)(C)c3cc(Cl)cc(Cl)c3)(NC(=O)c3cc(-c4ccc(F)cc4F)on3)C2)CC1 [Example 1.105]
34 | < 5 nM | CC(C)(NC(=O)CC1(NC(=O)c2cc(-c3ccc(F)cc3F)on2)CN([C@H]2CC[C@](C)(O)CC2)C1)c1cccc(C#N)c1 [Example 1.173]
35 | 5 to 100 nM | O=C(CC1(NC(=O)c2cc(-c3ccc(F)cc3F)on2)CN(C2CCCCC2)C1)N[C@H](CO)c1ccccc1 [Example 1.316]
36 | 5 to 100 nM | CC(C)(NC(=O)CC1(NC(=O)c2cn(-c3ccc(F)cc3F)nn2)CN(C2CCCCC2)C1)c1cccc(Cl)c1 [Example 1.076]
37 | 5 to 100 nM | CC(C)(NC(=O)CC1(NC(=O)c2cc(-c3ccc(F)cc3F)on2)CN(C2CCCC2)C1)c1ccccn1 [Example 1.094]
38 | 5 to 100 nM | COc1cccc(C(C)(C)NC(=O)CC2(NC(=O)c3cc(-c4ccc(F)cc4F)on3)CN(C3CCC4(CC3)COC4)C2)c1 [Example 1.183]
39 | < 5 nM | CCc1cccc(C(C)(C)NC(=O)CC2(NC(=O)c3cc(-c4ccc(F)cc4F)on3)CN([C@H]3CC[C@@](C)(O)CC3)C2)c1 [Example 1.208]
40 | < 5 nM | CC(C)(NC(=O)CC1(NC(=O)c2cc(-c3ccc(F)cc3F)on2)CN(C2CCCCC2)C1)c1cccc(F)c1 [Example 1.301]
41 | < 5 nM | CC(C)(NC(=O)CC1(NC(=O)c2cc(-c3ccc(F)cc3F)on2)CN([C@H]2CC[C@](C)(O)CC2)C1)c1cccc(F)c1 [Example 1.289]
42 | 5 to 100 nM | CC(C)(NC(=O)CC1(NC(=O)c2cc(-c3ccc(F)cc3F)on2)CN([C@H]2CC[C@](C)(O)CC2)C1)c1cccc(C(F)(F)F)c1 [Example 1.199]
43 | < 5 nM | CC(C)(NC(=O)CC1(NC(=O)c2cc(-c3ccc(F)cc3F)on2)CN(C2CCCCC2)C1)c1ccccc1 [Example 1.318]
44 | < 5 nM | CC(C)(NC(=O)CC1(NC(=O)c2cc(-c3ccc(F)cc3F)on2)CN([C@H]2CC[C@](C)(O)CC2)C1)c1ccccc1 [Example 1.268]
45 | < 5 nM | Cc1cccc(C(C)(C)NC(=O)CC2(NC(=O)c3cc(-c4ccc(F)cc4F)on3)CN([C@H]3CC[C@@](C)(O)CC3)C2)n1 [Example 1.225]
46 | 1000 to 20000 nM | O=C(CC1(NC(=O)c2cc(-c3ccc(F)cc3F)on2)CN(C2CCCCC2)C1)N[C@@H](CO)c1ccccc1 [Example 1.310]
47 | 100 to 1000 nM | Cc1ccc(C(C)(C)NC(=O)CC2(NC(=O)c3cc(-c4ccc(F)cc4F)on3)CN([C@H]3CC[C@](C)(O)CC3)C2)cc1 [Example 1.243]
48 | < 5 nM | Cc1cc(Cl)cc(C(C)(C)NC(=O)CC2(NC(=O)c3cc(-c4ccc(F)cc4F)on3)CN([C@H]3CC[C@@](C)(O)CC3)C2)c1 [Example 1.083]
49 | 5 to 100 nM | CC1(C)CC(N2CC(CC(=O)NC(C)(C)c3cccc(Cl)c3)(NC(=O)c3cc(-c4ccc(F)cc4F)on3)C2)CCO1 (centres unmarked) [Example 1.357]
50 | < 5 nM | CC(C)(NC(=O)CC1(NC(=O)c2nnc(-c3ccc(F)cc3F)s2)CN(C2CCCCC2)C1)c1ccccn1 [Example 1.072]
